Reference: US20240216288A1, “LIPID NANOPARTICLES CONTAINING POLYNUCLEOTIDES ENCODING PROPIONYL-COA CARBOXYLASE ALPHA AND BETA SUBUNITS AND USES THEREOF” (ModernaTX, Inc., priority 2021, published 2024)

Assay: Residual parent lipid in mouse liver at 24 h (hEPO study)
Assay type: in vivo
Conditions: CD-1 mice

Parent Lipid Remaining (nmol/g liver tissue) at 24 h: 0.1 0.04 nmol/g liver tissue
SMILES: CCCCCC(CCCCC)CCOC(=O)CCCCCCCN(CCO)CCCCCCCC(=O)OCCC(CCCCC)CCCCC [compound 25]
